{"source": "ChEMBL document CHEMBL1132067", "about": "“Cytotoxic effects of NSL-1406, a new thienopyrimidine derivative, on leukocytes and osteoclasts” (Bioorg Med Chem Lett, 1999)", "key": {"[1]": {"test_system": "A-431", "test": "Cytotoxicity against […] cells is the dose giving 50% decrease in the formation of formazan dye", "assay_type": "functional, cell-based", "details": "Homo sapiens"}, "[2]": {"test_system": "ECV-304", "test": "Dose giving a 50% decrease in the living cell number (ECV-304 cells)", "assay_type": "functional", "details": "Homo sapiens, read-out: LD50 (the source's name)"}, "[3]": {"test_system": "ECV-304", "test": "Cytotoxicity against ECV-304 cells is the dose giving 50% decrease in the formation of formazan dye", "assay_type": "functional, cell-based", "details": "Homo sapiens"}, "[4]": {"test_system": "HL-60", "test": "Dose giving a 50% decrease in the living cell number (HL-60 cells)", "assay_type": "functional", "details": "Homo sapiens, read-out: LD50 (the source's name)"}, "[5]": {"test_system": "HL-60", "test": "Cytotoxicity against HL-60 cells is the dose giving 50% decrease in the formation of formazan dye", "assay_type": "functional, cell-based", "details": "Homo sapiens"}, "[6]": {"test_system": "J774", "test": "Cytotoxicity against J774 cells is the dose giving 50% decrease in the formation of formazan dye", "assay_type": "functional, cell-based", "details": "Mus musculus"}, "[7]": {"test_system": "J774", "test": "Dose giving a 50% decrease in the living cell number (J774 cells)", "assay_type": "functional", "details": "Mus musculus, read-out: LD50 (the source's name)"}, "[8]": {"test_system": "P388", "test": "Cytotoxicity against P388 cells is the dose giving 50% decrease in the formation of formazan dye", "assay_type": "functional, cell-based", "details": "Mus musculus"}, "[9]": {"test_system": "P388", "test": "Dose giving a 50% decrease in the living cell number (P388 cells)", "assay_type": "functional", "details": "Mus musculus, read-out: LD50 (the source's name)"}, "[10]": {"test_system": "A-431", "test": "Dose giving a 50% decrease in the living cell number ([…] cells)", "assay_type": "functional", "details": "Homo sapiens, read-out: LD50 (the source's name)"}}, "data": [{"smiles": "Cc1csc2ncnc(NCCc3ccc(Cl)cc3)c12", "values": [{"measurement": "IC50", "setting": "[1]", "value": 20, "unit": "µM"}, {"measurement": "CC50", "setting": "[2]", "value": 53, "unit": "µM"}, {"measurement": "IC50", "setting": "[3]", "value": 34, "unit": "µM"}, {"measurement": "CC50", "setting": "[4]", "value": 67, "unit": "µM"}, {"measurement": "IC50", "setting": "[5]", "value": 0.0085, "unit": "µM"}, {"measurement": "IC50", "setting": "[6]", "value": 0.005, "unit": "µM"}, {"measurement": "CC50", "setting": "[7]", "value": 43, "unit": "µM"}, {"measurement": "IC50", "setting": "[8]", "value": 0.0052, "unit": "µM"}, {"measurement": "CC50", "setting": "[9]", "value": 35, "unit": "µM"}, {"measurement": "CC50", "setting": "[10]", "value": 51, "unit": "µM"}]}, {"smiles": "Cc1csc2ncnc(Cl)c12", "values": [{"measurement": "IC50", "setting": "[8]", "value": 33, "unit": "µM"}, {"measurement": "CC50", "setting": "[9]", "value": 490, "unit": "µM"}]}, {"smiles": "Cc1csc2ncnc(NCCc3ccc(F)cc3)c12", "values": [{"measurement": "IC50", "setting": "[8]", "value": 0.029, "unit": "µM"}, {"measurement": "CC50", "setting": "[9]", "value": 68, "unit": "µM"}]}, {"smiles": "Clc1ccc(CCNc2ncnc3ccsc23)cc1", "values": [{"measurement": "IC50", "setting": "[8]", "value": 0.029, "unit": "µM"}, {"measurement": "CC50", "setting": "[9]", "value": 41, "unit": "µM"}]}, {"smiles": "Cc1csc2ncnc(NCCc3ccccc3)c12", "values": [{"measurement": "IC50", "setting": "[8]", "value": 0.029, "unit": "µM"}, {"measurement": "CC50", "setting": "[9]", "value": 43, "unit": "µM"}]}, {"smiles": "Cc1csc2ncnc(NCCc3ccc(O)cc3)c12", "values": [{"measurement": "IC50", "setting": "[8]", "value": 0.19, "unit": "µM"}, {"measurement": "CC50", "setting": "[9]", "value": 86, "unit": "µM"}]}, {"smiles": "COc1ccc(CCNc2ncnc3scc(C)c23)cc1", "values": [{"measurement": "IC50", "setting": "[8]", "value": 0.0074, "unit": "µM"}, {"measurement": "CC50", "setting": "[9]", "value": 46, "unit": "µM"}]}, {"smiles": "Cc1csc2ncnc(NCCc3ccc(N)cc3)c12", "values": [{"measurement": "IC50", "setting": "[8]", "value": 0.022, "unit": "µM"}, {"measurement": "CC50", "setting": "[9]", "value": 39, "unit": "µM"}]}, {"smiles": "Cc1csc2ncnc(NCCc3ccc(Br)cc3)c12", "values": [{"measurement": "IC50", "setting": "[8]", "value": 0.0011, "unit": "µM"}, {"measurement": "CC50", "setting": "[9]", "value": 58, "unit": "µM"}]}, {"smiles": "Cc1csc2ncnc(NCc3ccc(Cl)cc3)c12", "values": [{"measurement": "IC50", "setting": "[8]", "value": 0.17, "unit": "µM"}, {"measurement": "CC50", "setting": "[9]", "value": 74, "unit": "µM"}]}, {"smiles": "Cc1csc2ncnc(NCCC(=O)O)c12", "values": [{"measurement": "IC50", "setting": "[8]", "value": 12, "unit": "µM"}, {"measurement": "CC50", "setting": "[9]", "value": 250, "unit": "µM"}]}, {"smiles": "Cc1csc2ncnc(NCCCc3ccc(Cl)cc3)c12", "values": [{"measurement": "IC50", "setting": "[8]", "value": 1.3, "unit": "µM"}, {"measurement": "CC50", "setting": "[9]", "value": 98, "unit": "µM"}]}, {"smiles": "Clc1ccc(CCNc2[nH]cnc3ncnc2-3)cc1", "values": [{"measurement": "IC50", "setting": "[8]", "value": 7.3, "unit": "µM"}, {"measurement": "CC50", "setting": "[9]", "value": 96, "unit": "µM"}]}, {"smiles": "Clc1ccc(CCNc2ncnc3sccc23)cc1", "values": [{"measurement": "IC50", "setting": "[8]", "value": 0.035, "unit": "µM"}, {"measurement": "CC50", "setting": "[9]", "value": 73, "unit": "µM"}]}, {"smiles": "CCCNc1ncnc2scc(C)c12", "values": [{"measurement": "IC50", "setting": "[8]", "value": 5.5, "unit": "µM"}, {"measurement": "CC50", "setting": "[9]", "value": 85, "unit": "µM"}]}]}
